In brackets after ≈: the same amount, converted by molar mass. Several values for one entry are separate records, joined by “and”; a condition that tells them apart may be missing. Equal values may be shown once. Read-outs that look alike come from different tables or passages of the source.
How the values were obtained:
Format in all cases: cell-based
Bacillus globigii = system: Bacillus globigii
Y. pestis = experiment: microbe, parasite or virus in culture; details: Yersinia pestis, 30 h, read-out: MIC100 Y. pestis (30 hr)
Pseudomonas stuarti = system: Pseudomonas stuarti
Streptococcus pyogenes = experiment: MIC100, clinical isolates of hospital-acquired pathogens (Table 7); details: Mueller Hinton+2-5% lysed horse blood, in µg/mL
Bacillus cereus = system: Bacillus cereus
Escherichia coli = system: Escherichia coli
E. coli = experiment: Modified NCCLS microbroth dilution MIC assay; details: Escherichia coli
Salmonella typhimurium = system: Salmonella typhimurium
[1] = system: Staphylococcus saprophyticus
Enterococcus faecalis [2] = system: Enterococcus faecalis
Staphylococcus aureus = system: Staphylococcus aureus
F. tularensis = experiment: microbe, parasite or virus in culture; details: Francisella tularensis
Streptococcus agalactiae = system: Streptococcus agalactiae
Haemophilus influenzae = experiment: MIC100, clinical isolates of hospital-acquired pathogens (Table 7); details: Mueller Hinton+NAD+yeast extract+hematin, in µg/mL
Pseudomonas aeruginosa = system: Pseudomonas aeruginosa
Enterobacter cloacae = system: Enterobacter cloacae
Enterococcus faecalis [3] = experiment: MIC100, clinical isolates of hospital-acquired pathogens (Table 7); details: control strain ATCC 29212

## NCCc1cc(Br)cc(C#Cc2cccc(C#Cc3cc(Br)cc(CCN)c3)c2)c1 [Compound 3]
Bacillus globigii
  MIC100 Bacillus globigii: 3.4 µg/mL (≈ 6.51 µM)
Y. pestis
  MIC: 4 µg/mL (≈ 7.66 µM)
Pseudomonas stuarti
  MIC100 Pseudomonas stuarti: > 6.6 µg/mL
Streptococcus pyogenes
  mic (MIC100) Streptococcus pyogenes: 2 and 4
Bacillus cereus
  MIC100 Bacillus cereus: 1.7 µg/mL (≈ 3.25 µM)
Escherichia coli
  MIC100 Escherichia coli 6C4468: 1.7 µg/mL (≈ 3.25 µM)
  MIC100 Escherichia coli CIS: 1.7 µg/mL (≈ 3.25 µM)
  MIC100 Escherichia coli D31: 0.84 µg/mL (≈ 1.61 µM)
E. coli; read-out: MIC90 E. Coli
  MIC90: 0.8 µg/mL (≈ 1.53 µM)
E. coli; 18 to 20 hours incubation, OD 600 nm
  MIC: 0.8 µg/mL (≈ 1.53 µM)
E. coli; E. coli D31, defined as >3 log reduction in bacterial titre
  MBC: 0.8 µg/mL (≈ 1.53 µM)
Salmonella typhimurium
  MIC100 Salmonella typhimurium: 3.4 µg/mL (≈ 6.51 µM)
[1]
  MIC100 Staphylococcus saprophyticus: 0.8 µg/mL (≈ 1.53 µM)
Enterococcus faecalis [2]
  MIC100 Enterococcus faecalis: 0.84 µg/mL (≈ 1.61 µM)
Staphylococcus aureus
  MIC100 Staphylococcus aureus: 1.7 µg/mL (≈ 3.25 µM)
F. tularensis; read-out: MIC100 F. tularensis 17135
  MIC: 1 µg/mL (≈ 1.91 µM)
F. tularensis; read-out: MIC100 F. tularensis 17137
  MIC: 1 µg/mL (≈ 1.91 µM)
Streptococcus agalactiae
  MIC100 Streptococcus agalactiae: 0.4 µg/mL (≈ 0.766 µM)
Haemophilus influenzae
  mic (MIC100) Haemophilus influenzae: 4
Pseudomonas aeruginosa
  MIC100 Pseudomonas aeruginosa: 3.4 µg/mL (≈ 6.51 µM)
Enterobacter cloacae
  MIC100 Enterobacter cloacae: 1.7 µg/mL (≈ 3.25 µM)
Enterococcus faecalis [3]
  mic (MIC100) Enterococcus faecalis ATCC 29212: 1 µg/mL
